Measurements published in patent US8637549B2, “Pyridons as PDK1 inhibitors” (Boehringer Ingelheim International GmbH, priority 2008, dated 2014).

Molecular target: T1, His6-PDK1 (aa 52-556) (Homo sapiens, UniProt O15530)
T1 construct: 15 μL His6-PDK1 (aa 52-556) 3.33 ng/well) and PDKtide; host or cells: baculovirus-infected insect cells
T1 sequence (O15530 52-556): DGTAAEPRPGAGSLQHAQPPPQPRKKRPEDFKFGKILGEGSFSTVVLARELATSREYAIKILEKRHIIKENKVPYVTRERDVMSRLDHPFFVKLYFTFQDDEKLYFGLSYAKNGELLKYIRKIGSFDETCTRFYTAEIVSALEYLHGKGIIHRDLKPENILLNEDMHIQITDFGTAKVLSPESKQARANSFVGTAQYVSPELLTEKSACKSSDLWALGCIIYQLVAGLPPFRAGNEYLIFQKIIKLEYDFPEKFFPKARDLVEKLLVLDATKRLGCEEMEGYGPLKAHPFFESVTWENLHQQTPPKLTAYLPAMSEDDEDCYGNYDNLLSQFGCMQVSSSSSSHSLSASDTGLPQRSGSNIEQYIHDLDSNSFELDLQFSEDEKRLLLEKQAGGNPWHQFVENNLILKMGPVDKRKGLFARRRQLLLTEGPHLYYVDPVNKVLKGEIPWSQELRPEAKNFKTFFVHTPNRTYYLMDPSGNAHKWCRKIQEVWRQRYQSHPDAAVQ
Assay: PDK1 kinase assay III (with Tween 20)
Type: biochemical
Conditions: 10 μM compound, residual enzyme activity relative to DMSO control, unmarked values, read-out: % CTL
Procedure: Another PDK1 assay was developed which by comparison with PDK1 assay 1 additionally contains Tween 20:
The following components are combined in a well of a 96-well round-based dish (Messrs. Greiner bio-one, No. 650101): • 15 μL of compound to be tested in varying concentrations (e.g. Starting at 10 μM, and diluted in steps of 1:5) in APT buffer (50 mM tris/C1 pH7.5; 0.05% β-mercaptoethanol; 10 mM Mg-acetate; 0.0166% Tween 20; 3.33% DMSO) • 15 μL His6-PDK1 (aa 52-556) 3.33 ng/well) and PDKtide (KTFCGTPEYLAPEVRRE […]), synthesised by Pepceuticals Limited, Nottingham, United Kingdom; 25 μM final concentration); His6-PDK1 and PDKtide are together diluted accordingly in assay buffer (50 mM tris pH 7.5, 0.05% β-mercaptoethanol, 10 mM Mg-acetate); PDKtide is present in this mixture as an 83.3 μM solution. These 30 μL are routinely incubated for 30 min at RT. • 20 μL ATP solution (25 μM ATP with 1.0 μCi/well gamma-P33-ATP). The final concentration of Tween 20 is 0.005%.
The reaction is started by adding the ATP solution and the mixture is incubated for 90 min at ambient temperature; at the start of the reaction the dishes are shaken gently. The reaction is stopped by the addition of 50 μL/well of 500 mM phosphoric acid (H3PO4) and incubated for about 20 min at ambient temperature. The precipitate is transferred by harvesting onto filter plates (96-well microtitre filter plate: UniFilter GF/C; Messrs Perkin Elmer; No. 6005174), then washed 6 times with 50 mM H3PO4 and dried at 60° C. Then the plate is stuck down with sealing tape, 25 μL/well of scintillation solution (Microscint 0; Messrs. Perkin Elmer; No. 6013611) are added and the amount of P33 precipitated is measured using the Wallac Betacounter. The measured data are evaluated using Graphpad Prism software.
The % CTL values indicate the residual activity of the enzyme after the addition of the inhibitory compound in the solvent DMSO in relation to the enzyme activity in the solvent DMSO without the addition of a compound (control). The majority of the values were determined using the PDK1 kinase assay III described hereinbefore. The values marked with an asterisk (*) were determined using the PDK1 kinase assay II described hereinbefore.

SMILES	remaining activity at 10 µM
CN(C)Cc1ccc(Nc2ncc3cc(/C=C/CNC(=O)c4cccn(Cc5ccc(C(F)(F)F)nc5)c4=O)ccc3n2)cc1 [III-16, N-{(2E)-3-[2-({4-[(dimethylamino)methyl]phenyl}amino)quinazolin-6-yl]prop-2-en-1-yl}-2-oxo-1-{[6-(trifluoromethyl)pyridin-3-yl]methyl}-1,2-dihydropyridine-3-carboxamide]	19.2%
O=C1Nc2cc(/C=C/CNC(=O)c3cccn(Cc4ccc(Cl)nc4)c3=O)ccc2/C1=C/c1ccc[nH]1 [I-2, 1-[(6-chloropyridin-3-yl)methyl]-2-oxo-N-{(2E)-3-[(3Z)-2-oxo-3-(1H-pyrrol-2-ylmethylidene)-2,3-dihydro-1H-indol-6-yl]prop-2-en-1-yl}-1,2-dihydropyridine-3-carboxamide]	21.4%
O=C1Nc2cc(/C=C/CNC(=O)c3cccn(Cc4cccnc4)c3=O)ccc2/C1=C/c1ccc[nH]1 [I-4, 2-oxo-N-{(2E)-3-[(3Z)-2-oxo-3-(1H-pyrrol-2-ylmethylidene)-2,3-dihydro-1H-indol-6-yl]prop-2-en-1-yl}-1-(pyridin-3-ylmethyl)-1,2-dihydropyridine-3-carboxamide]	18.6%
Cc1ccc(Cn2cccc(C(=O)NC/C=C/c3ccc4c(c3)NC(=O)/C4=C\c3cnc[nH]3)c2=O)cn1 [I-24, N-{(2E)-3-[(3Z)-3-(1H-imidazol-5-ylmethylidene)-2-oxo-2,3-dihydro-1H-indol-6-yl]prop-2-en-1-yl}-1-[(6-methylpyridin-3-yl)methyl]-2-oxo-1,2-dihydropyridine-3-carboxamide]	20.1%
CN(C)Cc1ccc(Nc2ncc3cc(/C=C/CNC(=O)c4cccn(Cc5ccc(Cl)nc5)c4=O)ccc3n2)cc1 [III-13, 1-[(6-chloropyridin-3-yl)methyl]-N-{(2E)-3-[2-({4-[(dimethylamino)methyl]-phenyl}amino)quinazolin-6-yl]prop-2-en-1-yl}-2-oxo-1,2-dihydropyridine-3-carboxamide]	13.6%
O=C1Nc2cc(/C=C/CNC(=O)c3cccn(Cc4ccc(Cl)nc4)c3=O)ccc2/C1=C/c1cnc[nH]1 [I-1, 1-[(6-chloropyridin-3-yl)methyl]-N-{(2E)-3-[(3Z)-3-(1H-imidazol-5-ylmethylidene)-2-oxo-2,3-dihydro-1H-indol-6-yl]prop-2-en-1-yl}-2-oxo-1,2-dihydropyridine-3-carboxamide]	16.8%
O=C1Nc2cc(/C=C/CNC(=O)c3cccn(Cc4ccncc4)c3=O)ccc2/C1=C/c1cnc[nH]1 [I-8, N-{(2E)-3-[(3Z)-3-(1H-imidazol-5-ylmethylidene)-2-oxo-2,3-dihydro-1H-indol-6-yl]prop-2-en-1-yl}-2-oxo-1-(pyridin-4-ylmethyl)-1,2-dihydropyridine-3-carboxamide]	25.1%
CN(C)CCNC(=O)c1cccc(-c2c[nH]c(/C=C3\C(=O)Nc4cc(/C=C/CNC(=O)c5cccn(Cc6ccc(Cl)nc6)c5=O)ccc43)c2)c1 [I-3, 1-[(6-chloropyridin-3-yl)methyl]-N-{(2E)-3-[(3Z)-3-{[4-(3-{[2-(dimethylamino)-ethyl]carbamoyl}phenyl)-1H-pyrrol-2-yl]methylidene}-2-oxo-2,3-dihydro-1H-indol-6-yl]prop-2-en-1-yl}-2-oxo-1,2-dihydropyridine-3-carboxamide]	18.9%
CN1CCC(Nc2ccc(Nc3ncc4cc(/C=C/CNC(=O)c5cccn(Cc6ccc(C(F)(F)F)nc6)c5=O)ccc4n3)cc2F)CC1 [III-14, N-{(2E)-3-[2-({3-fluoro-4-[(1-methylpiperidin-4-yl)amino]phenyl}amino)quinazolin-6-yl]prop-2-en-1-yl}-2-oxo-1-{[6-(trifluoromethyl)pyridin-3-yl]methyl}-1,2-dihydropyridine-3-carboxamide]	17.2%
O=C1Nc2cc(/C=C/CNC(=O)c3cccn(CC4CCCCC4)c3=O)ccc2/C1=C/c1ccc[nH]1 [I-13, 1-(cyclohexylmethyl)-2-oxo-N-{(2E)-3-[(3Z)-2-oxo-3-(1H-pyrrol-2-ylmethylidene)-2,3-dihydro-1H-indol-6-yl]prop-2-en-1-yl}-1,2-dihydropyridine-3-carboxamide]	25.7%
O=C1Nc2cc(/C=C/CNC(=O)c3cccn(Cc4cccnc4)c3=O)ccc2/C1=C/c1cnc[nH]1 [I-7, N-{(2E)-3-[(3Z)-3-(1H-imidazol-5-ylmethylidene)-2-oxo-2,3-dihydro-1H-indol-6-yl]prop-2-en-1-yl}-2-oxo-1-(pyridin-3-ylmethyl)-1,2-dihydropyridine-3-carboxamide]	14.5%
O=C1Nc2cc(/C=C/CNC(=O)c3cccn(Cc4ccccn4)c3=O)ccc2/C1=C/c1cnc[nH]1 [I-9, N-{(2E)-3-[(3Z)-3-(1H-imidazol-5-ylmethylidene)-2-oxo-2,3-dihydro-1H-indol-6-yl]prop-2-en-1-yl}-2-oxo-1-(pyridin-2-ylmethyl)-1,2-dihydropyridine-3-carboxamide]	17.7%
CN(C)Cc1ccc(Nc2ncc3cc(/C=C/CNC(=O)c4cccn(Cc5cccnc5)c4=O)ccc3n2)cc1 [III-12, N-{(2E)-3-[2-({4-[(dimethylamino)methyl]phenyl}amino)quinazolin-6-yl]prop-2-en-1-yl}-2-oxo-1-(pyridin-3-ylmethyl)-1,2-dihydropyridine-3-carboxamide]	18.3%
Cn1cnc(Cn2cccc(C(=O)NC/C=C/c3ccc4c(c3)NC(=O)/C4=C\c3cnc[nH]3)c2=O)c1 [I-27, N-{(2E)-3-[(3Z)-3-(1H-imidazol-5-ylmethylidene)-2-oxo-2,3-dihydro-1H-indol-6-yl]prop-2-en-1-yl}-1-[(1-methyl-1H-imidazol-4-yl)methyl]-2-oxo-1,2-dihydropyridine-3-carboxamide]	47.7%
CN1CCC(N(C)c2ccc(Nc3ncc4cc(/C=C/CNC(=O)c5cccn(Cc6ccc(C(F)(F)F)nc6)c5=O)ccc4n3)cc2)CC1 [III-15, N-{(2E)-3-[2-({4-[methyl(1-methylpiperidin-4-yl)amino]phenyl}amino)quinazolin-6-yl]prop-2-en-1-yl}-2-oxo-1-{[6-(trifluoromethyl)pyridin-3-yl]methyl}-1,2-dihydropyridine-3-carboxamide]	21%
O=C1Nc2cc(/C=C/CNC(=O)c3cccn(Cc4ccncc4)c3=O)ccc2/C1=C/c1ccc[nH]1 [I-5, 2-oxo-N-{(2E)-3-[(3Z)-2-oxo-3-(1H-pyrrol-2-ylmethylidene)-2,3-dihydro-1H-indol-6-yl]prop-2-en-1-yl}-1-(pyridin-4-ylmethyl)-1,2-dihydropyridine-3-carboxamide]	39.6%
Cn1cncc1Cn1cccc(C(=O)NC/C=C/c2ccc3c(c2)NC(=O)/C3=C\c2cnc[nH]2)c1=O [I-26, N-{(2E)-3-[(3Z)-3-(1H-imidazol-5-ylmethylidene)-2-oxo-2,3-dihydro-1H-indol-6-yl]prop-2-en-1-yl}-1-[(1-methyl-1H-imidazol-5-yl)methyl]-2-oxo-1,2-dihydropyridine-3-carboxamide]	34.1%
O=C1Nc2cc(/C=C/CNC(=O)c3cccn(CC4CCCCC4)c3=O)ccc2/C1=C/c1cnc[nH]1 [I-25, 1-(cyclohexylmethyl)-N-{(2E)-3-[(3Z)-3-(1H-imidazol-5-ylmethylidene)-2-oxo-2,3-dihydro-1H-indol-6-yl]prop-2-en-1-yl}-2-oxo-1,2-dihydropyridine-3-carboxamide]	15.1%
CN1CCC(Nc2ccc(Nc3ncc4cc(C#CCNC(=O)c5cccn(Cc6ccc(C(F)(F)F)nc6)c5=O)ccc4n3)cc2F)CC1 [II-7, N-{3-[2-({3-fluoro-4-[(1-methylpiperidin-4-yl)amino]phenyl}amino)quinazolin-6-yl]prop-2-yn-1-yl}-2-oxo-1-{[6-(trifluoromethyl)pyridin-3-yl]methyl}-1,2-dihydropyridine-3-carboxamide]	18.6%
